Columns and labels:
[1] = Foam measurement (Dynamic Foam Analyser, Kruss); format: physicochemical; details: 50 ml of 1.5 wt % solution, stirred at 3,000 rpm for 2 minutes
Method: Foaming was evaluated using a Dynamic Foam Analyser from Kruss. A volume of 50 ml of 1.5 wt % alkyl polyglucoside solution was added to the cylinder. […] PEG-80 sorbitan laurate and cocamidopropyl betaine were used as surfactant controls.

[2] = Essential oils solubility; format: physicochemical; details: 7 wt % solubilizer in water, room temperature, after 5 hours
Method: 13 wt % solution of alkyl polyglucoside in distilled water was prepared and separately mixed with lemon oil, lavender oil, tea tree oil and patchouli oil at a ratio of 1:7 (w/w), and then the mixtures were added dropwise under stirring to water to a final concentration of 1 wt % essential oil and 7 wt % alkyl polyglucoside. […] The mixtures were then left at room temperature for 5 hours and observed for phase separation. Lauryl glucoside was used as a surfactant control with both lemon oil and lavender oil.

| Substance | Foam height [1] [mm] | Essential oils solubility: lavender oil mixture appearance / phase separation ([2]; 1 wt % lavender oil) | Essential oils solubility: lemon oil mixture appearance / phase separation ([2]; 1 wt % lemon oil) |
| --- | --- | --- | --- |
| cocamidopropyl betaine | 78 | – | – |
| lauryl glucoside | – | white and cloudy, and had phase separated | white and cloudy, and had phase separated |

Reference: US20230227878A1, “PROCESS FOR PREPARING SURFACTANT” (Enza Biotech AB, priority 2020, published 2023)
